# Laboratory results from patent US20250051338A1, “TYK2 DEGRADERS AND USES THEREOF” (Kymera Therapeutics, Inc., priority 2021, published 2025).
# How the values were obtained:
# Assay type in all cases: cell-based
# TYK2 [1] = molecular target: T1, TYK2 (Homo sapiens, UniProt P29597); assay: TYK2 degradation MSD assay in human PBMC cells; parameters: endogenous in cells; host or cells: human PBMC; conditions: 4 to 24 hours incubation, read-out: TYK2 MSD DC50 rating in human PBMC
# Outline: (§1)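 0.4 million cells/well; cpd 9-dose 1:3 titration, top 1–10 μM; 4–24 h, 37° C, 5% CO2; RIPA lysis; TYK2 capture/detection sandwich on MSD, SULFO-TAG anti-rabbit secondary; DC50 via 4-parameter fit.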
# TYK2 [2] = molecular target: T1, TYK2; assay: TYK2 degradation MSD assay in EBV-B cells; parameters: endogenous in cells; host or cells: EBV-B cells; conditions: 4 to 24 hours incubation, read-out: TYK2 MSD DC50 rating in EBV-B
# Outline: as §1
# TYK2 [3] = molecular target: T1, TYK2; assay: TYK2 degradation MSD assay in OCI-LY10 cells; parameters: endogenous in cells; host or cells: EBV-B cells; conditions: 4 to 24 hours incubation, read-out: TYK2 MSD DC50 rating in OCI-LY10
# Outline: as §1
# T1 sequence (P29597 whole entry): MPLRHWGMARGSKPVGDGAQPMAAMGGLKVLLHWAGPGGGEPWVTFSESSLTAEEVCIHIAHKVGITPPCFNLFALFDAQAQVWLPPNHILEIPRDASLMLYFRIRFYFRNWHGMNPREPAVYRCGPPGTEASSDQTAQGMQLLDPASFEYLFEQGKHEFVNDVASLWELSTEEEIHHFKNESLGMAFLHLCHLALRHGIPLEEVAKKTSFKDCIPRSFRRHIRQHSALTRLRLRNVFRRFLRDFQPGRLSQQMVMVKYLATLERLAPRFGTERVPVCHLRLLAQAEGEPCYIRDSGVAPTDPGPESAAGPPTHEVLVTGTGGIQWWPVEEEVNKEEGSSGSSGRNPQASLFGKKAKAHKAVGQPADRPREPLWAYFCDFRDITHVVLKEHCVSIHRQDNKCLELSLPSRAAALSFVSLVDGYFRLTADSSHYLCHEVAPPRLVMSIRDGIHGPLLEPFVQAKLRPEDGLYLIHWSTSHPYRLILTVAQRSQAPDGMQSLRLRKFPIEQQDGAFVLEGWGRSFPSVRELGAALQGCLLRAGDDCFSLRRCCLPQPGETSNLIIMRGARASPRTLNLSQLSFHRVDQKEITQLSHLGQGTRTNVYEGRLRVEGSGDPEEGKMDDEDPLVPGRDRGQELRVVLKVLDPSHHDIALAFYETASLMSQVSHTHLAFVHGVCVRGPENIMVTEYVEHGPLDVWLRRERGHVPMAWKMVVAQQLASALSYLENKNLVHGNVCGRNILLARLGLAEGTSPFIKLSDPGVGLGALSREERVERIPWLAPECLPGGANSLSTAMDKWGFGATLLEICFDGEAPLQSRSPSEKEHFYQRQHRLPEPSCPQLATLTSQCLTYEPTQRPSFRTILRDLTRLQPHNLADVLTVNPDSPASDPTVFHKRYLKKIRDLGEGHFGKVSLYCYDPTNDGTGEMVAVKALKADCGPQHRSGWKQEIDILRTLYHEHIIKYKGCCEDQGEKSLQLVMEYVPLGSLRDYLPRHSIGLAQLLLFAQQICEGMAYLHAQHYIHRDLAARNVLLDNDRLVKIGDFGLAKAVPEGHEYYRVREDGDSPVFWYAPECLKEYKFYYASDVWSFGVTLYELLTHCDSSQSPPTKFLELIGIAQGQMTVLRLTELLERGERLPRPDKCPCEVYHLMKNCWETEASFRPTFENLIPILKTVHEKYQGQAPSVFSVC
Structure (SMILES),DC50 (TYK2 [1]) [nM],DC50 (TYK2 [2]) [nM],DC50 (TYK2 [3]) [nM]
CNC(=O)c1cnc(Nc2ccc(CN3CCC(c4cccc5c4n(C)c(=O)n5C4CCC(=O)NC4=O)CC3)cn2)cc1Nc1cccc(-c2ncc(F)cn2)c1OC (stereo not drawn) [Example K167],> 100,< 1,> 100
CNc1cc(N2CCN(c3ccc(CN4CCN(c5ccc(-c6ccc7c(c6)n(C)c(=O)n7C6CCC(=O)NC6=O)cc5)CC4)cc3)CC2)nn2c(C(=O)N[C@@H]3C[C@@H]3F)cnc12 (stereo partly drawn) [Example K620],> 100,> 100,> 100
CNc1cc(Nc2cccc(CN3CC(C)(Cc4ccc5c(c4)n(C)c(=O)n5C4CCC(=O)NC4=O)C3)c2)nn2c(C(=O)NC3CC3)cnc12 (stereo not drawn) [Example K607],> 100,> 100,> 100
CNc1cc(Nc2cccn(-c3ccc(C(=O)N4CCN(CCCOCCc5ccc(-c6ccc7c(c6)n(C)c(=O)n7C6CCC(=O)NC6=O)cc5)CC4)cn3)c2=O)nn2c(C(=O)N[C@@H]3C[C@@H]3F)cnc12 (stereo partly drawn) [Example K379],> 100,< 1,> 100
CNc1cc(Nc2cccn(-c3ccc(C(=O)NCCOCCOCCOCCOCCOCCOCCc4ccc5c(c4)n(C)c(=O)n5C4CCC(=O)NC4=O)cn3)c2=O)nn2c(C(=O)N[C@@H]3C[C@@H]3F)cnc12 (stereo partly drawn) [Example K215],10 to 100,> 100,> 100
CNc1cc(Nc2cccc(-c3ccc(CN4CCN(c5ccc(-c6ccc7c(c6)n(C)c(=O)n7C6CCC(=O)NC6=O)cn5)C(=O)C4)cn3)c2)nn2c(C(=O)N[C@@H]3C[C@@H]3F)cnc12 (stereo partly drawn) [Example K455],> 100,< 1,< 1
CNc1cc(Nc2cccn(-c3ccc(C(=O)N4CCC5(CCN(c6ncc(C#Cc7ccc8c(c7)n(C)c(=O)n8C7CCC(=O)NC7=O)cn6)C5=O)C4)cn3)c2=O)nn2c(C(=O)N[C@@H]3C[C@@H]3F)cnc12 (stereo partly drawn) [Example K441],> 100,> 100,< 1
CNc1cc(Nc2cccc(-c3ccc(CN4CCN(c5ccc(-c6cccc7c6n(C)c(=O)n7C6CCC(=O)NC6=O)cc5)CC4)cn3)c2)nn2c(C(=O)N[C@@H]3C[C@@H]3F)cnc12 (stereo partly drawn) [Example K513],> 100,1 to 10,1 to 10
CNc1cc(Nc2cccn(C3CCN(C(=O)NCCCCc4ccc5c(c4)n(C)c(=O)n5C4CCC(=O)NC4=O)CC3)c2=O)nc2c(C(=O)N[C@@H]3C[C@@H]3F)cnn12 (stereo partly drawn) [Example K330],> 100,> 100,> 100
CNc1cc(Nc2cccn(-c3ccc(C(=O)N(C)CC4CCN(c5ccc6c(c5)n(C)c(=O)n6C5CCC(=O)NC5=O)CC4)cn3)c2=O)nn2c(C(=O)N[C@@H]3C[C@@H]3F)cnc12 (stereo partly drawn) [Example K280],< 1,< 1,> 100
CNC1=CC(Nc2cccc(-c3ccc(CN4CCN(CC5CCN(C(=O)c6ccc(Cl)c(N7CCC(=O)NC7=O)c6)CC5)CC4)cn3)c2)=NC2C(C(=O)N[C@@H]3C[C@@H]3F)=CN=C12 (stereo partly drawn) [Example K496],> 100,> 100,1 to 10
CNc1cc(Nc2cccc(-c3ccc(CN4CCC(N5CC(N6CCN(c7ccc8c(c7)n(C)c(=O)n8C7CCC(=O)NC7=O)CC6)C5)CC4)cn3)c2OC)nn2c(C(=O)N[C@@H]3C[C@@H]3F)cnc12 (stereo partly drawn) [Example K487],> 100,> 100,< 1
CNc1cc(Nc2cccc(C3CCN(C(=O)Cc4cccc5c4n(C)c(=O)n5C4CCC(=O)NC4=O)CC3)c2)nn2c(C(=O)N[C@@H]3C[C@@H]3F)cnc12 (stereo partly drawn) [Example K647],> 100,> 100,> 100
CNc1cc(Nc2cccn(-c3ccc(C(=O)N4CCC(CN5CCC56CN(c5ncc(C#Cc7ccc8c(c7)n(C)c(=O)n8C7CCC(=O)NC7=O)cn5)C6)CC4)cn3)c2=O)nn2c(C(=O)N[C@@H]3C[C@@H]3F)cnc12 (stereo partly drawn) [Example K375],> 100,1 to 10,> 100
CNC(=O)c1cnc(Nc2ccc(C(=O)NCCCCc3cccc4c3n(C)c(=O)n4C3CCC(=O)NC3=O)cn2)cc1Nc1ccccc1OC (stereo not drawn) [Example K191],1 to 10,> 100,1 to 10
CNc1cc(Nc2cccn(-c3ccc(C(=O)NCCCCc4cccc5c4n(C)c(=O)n5C4CCC(=O)NC4=O)cn3)c2=O)nn2c(C(=O)N[C@@H]3C[C@@H]3F)cnc12 (stereo partly drawn) [Example K259],> 100,> 100,> 100
CNC(=O)c1cnc(Nc2ccc(CN(C)CCCOC3CC(c4ccc5c(c4)n(C)c(=O)n5C4CCC(=O)NC4=O)C3)cn2)cc1Nc1cccc(-c2ncc(F)cn2)c1OC (stereo not drawn) [Example K148],< 1,< 1,> 100
CNc1cc(Nc2cccc(-c3ccc(CN4CCC(N5CC(N6CCN(c7cccc8c7n(C)c(=O)n8C7CCC(=O)NC7=O)CC6)C5)CC4)cn3)c2)nn2c(C(=O)N[C@@H]3C[C@@H]3F)cnc12 (stereo partly drawn) [Example K517],> 100,> 100,< 1
